Here are results for four compounds from patent publication US12194080B2, “Methods for identification, assessment, prevention, and treatment of metabolic disorders using PM20D1 and N-lipidated amino acids” (Dana-Farber Cancer Institute, Inc., priority 2015, dated 2025).

The subject of data set [1] is Diet induced obese (DIO) mice. Kind of data set: Chronic daily i.p. administration of N-acyl amino acids to DIO mice (body weight, food intake, body composition, GTT). Type of data set: in vivo, mouse. Conditions: chronic treatment, C18:1-Phe 30 or 50 mg/kg/day, C20:4-Gly 15 mg/kg/day, i.p. On the procedure:
(§1) Animal experiments were performed according to procedures approved by the Beth Israel Deaconess Medical Center IACUC. Mice were maintained in 12 h light-dark cycles at 22° C. and fed a standard irradiated rodent chow diet. All experiments on wild-type mice were performed with male C57BL/6 mice purchased from Jackson Laboratories, except for the AAV experiments, which were performed with male C57BL/6 mice from Charles River. UCP1-KO (stock #017476) and 16-20 week DIO mice (stock #380050) were obtained from Jackson Laboratories. For AAV injection experiments, mice were gently warmed using a 250 W clear infrared heat lamp, immobilized, and injected via tail vein with 10^10 virus/mouse (diluted in saline) in a total volume of 100 μl/mouse. Where indicated, mice were placed on high-fat diet (60% fat, Research Diets). For cold exposure experiments, mice were group housed and placed at 4° C. for the indicated times. For the preparation of C18:1-Phe for in vivo injections, compounds were dissolved in 18:1:1 v/v/v saline:Kolliphor® EL (Sigma Aldrich):DMSO and sonicated until homogeneous. Mice were administered compounds at 5 μl/g body weight at the indicated doses. For all injection experiments, mice were mock injected with saline daily for 3 days prior to the start of the experiments. For glucose tolerance tests (GTTs), mice received their final dose of compound the day prior to the assay and were then fasted overnight. Glucose was administered at 1.5 g/kg.
(§2) Energy expenditure, O2 consumption, CO2 production, respiratory exchange ratio, total locomotor activity, and food intake measurements were made with a 16-cage Columbus Instruments Oxymax Comprehensive Lab Animal Monitoring System (CLAMS) at ambient room temperature (21-23° C.). Mice were acclimated for one day in metabolic cages prior to data collection. Whole-body composition was assessed with an EchoMRI™ 3-in-1 on conscious mice.

Data set [2] deals with Diet induced obese (DIO) mice. Kind of data set: Indirect calorimetry (CLAMS) of high fat diet/DIO mice treated with N-acyl amino acids. Type of data set: in vivo, mouse. Conditions: daily i.p.: C18:1-Leu 25, C18:1-Phe 30, C20:4-Gly 15 mg/kg/day. Here is the method: as §1, §2
Data set [3] relates to primary inguinal fat cells, primary BAT cells, C2C12 cells, and U2OS cells. Kind of data set: Uncoupled respiration cellular assays (variety of cell types). Type of data set: cell-based. Conditions: N-acyl amino acids at 10-100 uM. Here is the method: (§3) Cellular oxygen consumption rates were determined using an XF24 Extracellular Flux Analyzer (Seahorse Biosciences). Oligomycin was purchased from EMD Millipore, and FCCP and rotenone were purchased from Sigma. C2C12 or U2OS cells were seeded at 30,000 or 50,000 cells/well, respectively in an XF24 cell culture microplate (V7-PS, Seahorse Bioscience) and analyzed the following day. Primary iWAT or BAT adipocytes were seeded at 15,000 cells/well, differentiation was induced the following day as described, and the cells were analyzed on day 5. On the day of analysis, the cells were washed once with Seahorse respiration buffer (8.3 g/1 DMEM, 1.8 g/l NaCl, 1 mM pyruvate, 20 mM glucose, pen/strep), placed in 0.5 ml Seahorse respiration buffer, and incubated in a CO2-free incubator for 1 hr. Port injection solutions were prepared as follows (final concentrations in assay in parentheses): 10 μM oligomycin (1 μM final), […] amino acid (50 μM final), 2 μM FCCP (0.2 μM final), and 30 μM rotenone (3 μM final). The Seahorse program was run as follows: basal measurement, 3 cycles; inject port A (oligomycin), 3 cycles; inject port B (compounds), 8 cycles; inject port C (FCCP), 3 cycles; inject port D (rotenone), 3 cycles. Each cycle consisted of mix 4 min, wait 0 min, and measure 2 min. For data expressed as a percentage of oligomycin-treated basal, the respiration at cycle 6 was normalized to 100%, and the maximum respiration at any time point between cycles 7 and 15 inclusive was used.

Data set [4] deals with differentiated primary iWAT cells. Kind of data set: Cellular oxygen consumption rate (Seahorse XF24), differentiated primary iWAT adipocytes. Type of data set: cell-based, mouse. Conditions: 50 μM, in presence of oligomycin (1 μM). On the procedure:
(§4) C2C12, U2O5, and 293A cells were cultured in DMEM with 10% FBS and pen/strep. Primary inguinal (iWAT) and brown (BAT) adipocytes were obtained as follows. The stromal-vascular fraction of inguinal (iWAT) pad from 4-12 week old male mice was dissected, minced, and digested for 45 min. at 37° C. in PBS containing 10 mM CaCl2, 2.4 U/ml dispase II (Roche), and 1.5 U/ml collagenase D (Roche). The stromal-vascular fraction of brown fat (BAT) pads from newborn (P1-P14) pups was dissected, minced, and digested for 45 min at 37° C. in PBS containing 1.3 mM CaCl2, 120 mM NaCl, 5 mM KCl, 5 mM glucose, 100 mM HEPES, 4% BSA, and 1.5 mg/ml collagenase B (Roche). Digested tissue was diluted with adipocyte culture media (DMEM/F-12, GlutaMAX™ supplement, Life Technologies, with 10% FBS and pen/strep) and centrifuged (600×g for 10 min.). The pellet was resuspended in 10 ml adipocyte culture media, strained through a 40 μm filter, and plated. Differentiation was induced by application of an adipogenic cocktail containing 5 μg/ml insulin (Sigma), 5 μM dexamethasone (Sigma), 250 μM isobutylmethylxanthine (Sigma), and 1 μM rosiglitazone (Cayman) for 2 days. Two days after induction, cells were maintained in adipocyte culture media containing 5 μg/ml insulin and 1 μM rosiglitazone.
as §3

Data set [5] is described as follows: Plasma AST, ALT and cytokine array after chronic treatment of DIO mice. Type of data set: in vivo, mouse. Conditions: 9 days chronic treatment, versus vehicle. On the procedure:
FIG. 14 includes 11 panels, identified as panels A, B, C, D, E, F, G, H, I, J, and K, which show the effects of chronic C20:4-Gly administration to mice. Panels A-F show the change in body weight (Panel A), daily and cumulative food intake (Panels B and C), and total body weight at day 7 (Panel D), VO2 (Panel E), and movement (Panel F) of 14 week DIO mice treated daily with vehicle or C20:4-Gly (20 mg/kg/day, i.p.). For Panels E and F, measurements were recorded for 2 days following 7 days chronic treatment with vehicle or C20:4-Gly (20 mg/kg/day, i.p.); during this time daily administration of the indicated compounds continued. […] Panels G-J show plasma AST (Panel G), ALT (Panel H), and plasma cytokine array profiling (Panels I and J) following 9 days chronic treatment with vehicle or C20:4-Gly (20 mg/kg/day, i.p.). For Panels G-J, plasma was collected 24 hr following the last dose of vehicle or C20:4-Gly. For Panels A-H, n=8/group, mean±SEM, *p<0.05, **p<0.01. For Panels I and J, plasma from 4 mice/group were pooled for each array.

A further data set relates to C2C12 cells. Kind of data set: Mitochondrial membrane potential by TMRM fluorescence. Conditions: 20 min. Type of data set: cell-based, mouse. Here is the method:
Mitochondrial membrane potential was measured using tetramethylrhodamine methyl ester (TMRM, Life Technologies) fluorescence. C2C12 cells were plated in 6-well plates and grown to 80-90% confluence. Cells were then washed once with PBS and switched into Seahorse respiration buffer with the indicated compounds at the indicated concentrations: TMRM (100 nM), oligomycin (1 μM), FCCP (0.4 μM), and C18:1-Phe (10 or 50 μM). After 20 min. incubation at 37° C., the media was aspirated, cells were washed once with PBS, and trypsinized. Trypsinized cells were directly resuspended in PBS (total volume 300 μl), stored on ice, and analyzed on a FACSCanto™ II (BD Biosciences) with 20,000 events per sample.

Another data set concerns U2OS cells. Kind of data set: Cellular oxygen consumption rate (uncoupled respiration), U2OS cells. Type of data set: cell-based, human. Conditions: 50 μM, after oligomycin 1 μM. On the procedure:
as §4, §3

As to `CCCCC/C=C\C/C=C\C/C=C\C/C=C\CCCC(=O)NCC(=O)O` [C20:4-Gly, N-arachidonoyl glycine], the food intake entry in data set [1] is “reduced food intake”. Also, in data set [2], the VO2 result was “significantly augmented” and the movement result is on record as “no effects”. Besides, in data set [3], the “uncoupled respiration in cells” value is on record as “increased uncoupled respiration”. In addition, in data set [4], the “maximal OCR versus DMSO at the same time point” value stood at 285% and the “maximal OCR versus oligomycin-treated basal respiration” value came to 295%. In addition, in data set [5], the “plasma ALT” value is reported as “no sigificant elevations”, the “plasma AST” value was “no sigificant elevations” and the plasma cytokines entry is recorded as “no sigificant elevations”.

In the case of `N#CC(C#N)=NNc1ccc(OC(F)(F)F)cc1` [FCCP], in the data set with C2C12 cells (co-treatment with oligomycin 1 μM, C18:1-Phe 50 μM, FCCP 0.4 μM), the “decrease of TMRM fluorescence” value is given as roughly 70%.

With `CCCCCCCCCCCCCCCCCC(=O)N[C@@H](Cc1ccccc1)C(=O)O` [N-stearoyl phenylalanine, Stearoyl-L-phenylalanine], in the data set with U2OS cells, the “uncoupling activity (uncoupled respiration)” value is given as “possessed uncoupling activity”. Moreover, in data set [3], the “uncoupled respiration in cells” value was “increased uncoupled respiration”.

`CC[C@H]1/C=C/C=C/C[C@@H](C)[C@H](O)[C@@](C)(O)C(=O)[C@@H](C)[C@H](O)[C@@H](C)C(=O)[C@@H](C)[C@H](O)[C@@H](C)/C=C/C(=O)O[C@@H]2[C@H](C)[C@H](CC1)O[C@]1(CC[C@H](C)[C@H](C[C@@H](C)O)O1)[C@H]2C` [oligomycin]: the mitochondrial membrane potential result with C2C12 cells (TMRM fluorescence) is “increased the membrane potential”.
